PMC9618446 (Biomedicine & Pharmacotherapy, 2022)

Tests used:
Format in all cases: cell-based
[1] = tested on: SARS-CoV-2 S protein variant P681H PsV; details: read-out: IC50 against SARS-CoV-2 S variant PsV P681H
[2] = tested on: SARS-CoV-2 S protein variant N501Y PsV; details: read-out: IC50 against SARS-CoV-2 S variant PsV N501Y
[3] = tested on: SARS-CoV-2 S protein variant D614G PsV; details: read-out: IC50 against SARS-CoV-2 S variant PsV D614G

COc1c(O)cc2oc(-c3ccccc3)cc(=O)c2c1O [OA, Oroxylin A]
IC50 [1]: 19.6 ± 2.39 µM
IC50 [2]: 13.6 ± 1.24 µM
IC50 [3]: 18.1 ± 0.67 µM
